Data as given in US8268829B2, “Substituted pyrimidines useful as protein kinase inhibitors” (Vertex Pharmaceuticals Inc., priority 2002, dated 2012).

Structure (SMILES) | melting point [°C]
O=C(Nc1ccc(Sc2nc(Nc3ccn[nH]3)cc(N3CCN(CC(=O)N4CCOCC4)CC3)n2)cc1)C1CC1 [Compound I-47] | 158 to 159
Cc1cc(Nc2cc(N3CCNCC3)nc(Sc3ccc(NC(=O)C(C)(C)C)cc3)n2)[nH]n1 [Compound V-3] | 178 to 181
CS(=O)(=O)N1CCN(c2cc(Nc3ccn[nH]3)nc(Sc3ccc(NC(=O)C4CC4)cc3)n2)CC1 [Compound I-42] | 168 to 169
CS(=O)(=O)CCN1CCN(c2cc(Nc3ccn[nH]3)nc(Sc3ccc(NC(=O)C4CC4)cc3)n2)CC1 [Compound I-45] | 154 to 155
CC(C)(C)N1CCN(c2cc(Nc3ccn[nH]3)nc(Sc3ccc(NC(=O)C4CC4)cc3)n2)CC1 [Compound I-53] | 167 to 169
CCC(=O)Nc1ccc(Sc2nc(Nc3cc(C)n[nH]3)cc(N3CC(C)NC(C)C3)n2)cc1 (centres unmarked) [Compound I-19] | 151 to 152
N#CCCN1CCN(c2cc(Nc3ccn[nH]3)nc(Sc3ccc(NC(=O)C4CC4)cc3)n2)CC1 [Compound I-37] | 131 to 132

The next lines start with the values.

melting point [°C] | Structure (SMILES)
220 to 222 | Cc1cc(Nc2cc(NCCN3CCCC3)nc(Sc3ccc(NC(=O)C4CC4)cc3)n2)[nH]n1 [Compound I-29]
238 to 239 | Cc1cc(Nc2cc(N3CCOCC3)nc(Sc3ccc(NC(=O)C4CC4)cc3)n2)[nH]n1 [Compound I-61]
159 to 160 | CCC(=O)Nc1ccc(Sc2nc(Nc3cc(C)n[nH]3)cc(N3CCC(N)C3)n2)cc1 (centres unmarked) [Compound I-20]
160 to 161 | CC1CN(c2cc(Nc3ccn[nH]3)nc(Sc3ccc(NC(=O)C4CC4)cc3)n2)CCN1 (centres unmarked) [Compound I-46]
